Experimental data from ChEMBL document CHEMBL1909046, “DrugMatrix in vitro pharmacology data”.

Columns and labels:
[1] = target: Beta-3 adrenergic receptor (Homo sapiens, UniProt P13945); experiment: DRUGMATRIX: Adrenergic beta3 radioligand binding (ligand: [125I] Cyanopindolol); format: cell membranes, HEK293, Membrane; conditions: hek293; Not Active = under 50% inhibition at 10 µM
[2] = target: C-C chemokine receptor type 2 (Homo sapiens, UniProt P41597); format: cell membranes, CHO-K1, Membrane; conditions: cho-k1; further: in other assays of this panel Not Active means under 50% inhibition at 10 µM
[3] = target: T1, Cholecystokinin receptor type A (Homo sapiens, UniProt P32238); format: cell membranes, Membrane; conditions: 1321-n1; further: in other assays of this panel Not Active means under 50% inhibition at 10 µM
T1 sequence (P32238 whole entry): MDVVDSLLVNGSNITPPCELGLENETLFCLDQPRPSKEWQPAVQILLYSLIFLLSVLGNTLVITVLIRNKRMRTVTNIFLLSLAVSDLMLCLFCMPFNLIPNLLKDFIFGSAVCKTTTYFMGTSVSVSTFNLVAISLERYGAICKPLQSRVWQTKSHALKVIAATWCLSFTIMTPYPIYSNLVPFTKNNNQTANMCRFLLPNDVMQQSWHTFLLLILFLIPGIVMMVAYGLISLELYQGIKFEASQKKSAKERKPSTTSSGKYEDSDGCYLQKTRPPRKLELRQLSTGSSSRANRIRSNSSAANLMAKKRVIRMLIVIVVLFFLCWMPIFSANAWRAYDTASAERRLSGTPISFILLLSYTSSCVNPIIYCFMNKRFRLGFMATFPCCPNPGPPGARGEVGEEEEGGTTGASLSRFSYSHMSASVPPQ

[4] = DRUGMATRIX: GABAA, Flunitrazepam, Central radioligand binding (ligand: [3H] Flunitrazepam); format: cell membranes, Rattus norvegicus, Wistar, Brain, Membrane; conditions: Not Active = under 50% inhibition at 10 µM
[5] = DRUGMATRIX: Glutamate, NMDA, Agonism radioligand binding (ligand: [3H] CGP-39653); format: cell membranes, Rattus norvegicus, Wistar, Cerebral cortex, Membrane; conditions: Not Active = under 50% inhibition at 10 µM
Melanocortin receptor 3 = Melanocortin receptor 3 (Homo sapiens, UniProt P41968); format: cell membranes, HEK293, Membrane; conditions: hek293; further: in other assays of this panel Not Active means under 50% inhibition at 10 µM
[6] = DRUGMATRIX: Phosphodiesterase PDE4 enzyme inhibition (substrate: [3H]cAMP + cAMP); conditions: u-937; Not Active = under 50% inhibition at 10 µM
Cathepsin G = target: T2, Cathepsin G (Homo sapiens, UniProt P08311); format: tissue-based; conditions: neutrophil;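 further: inhibition of Cathepsin G enzyme activity, tested on an AMC-conjugated peptide substrate; in other assays of this panel Not Active means under 50% inhibition at 10 µM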
T2 sequence (P08311 whole entry): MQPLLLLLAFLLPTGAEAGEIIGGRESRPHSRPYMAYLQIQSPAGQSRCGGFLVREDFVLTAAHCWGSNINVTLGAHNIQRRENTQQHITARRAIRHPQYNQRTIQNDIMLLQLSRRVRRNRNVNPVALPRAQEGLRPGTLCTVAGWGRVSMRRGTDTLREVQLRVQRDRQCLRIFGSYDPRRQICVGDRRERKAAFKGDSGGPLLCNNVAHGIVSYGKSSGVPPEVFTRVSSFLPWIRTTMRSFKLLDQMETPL

Sequence of C-C chemokine receptor type 2 (P41597 whole entry): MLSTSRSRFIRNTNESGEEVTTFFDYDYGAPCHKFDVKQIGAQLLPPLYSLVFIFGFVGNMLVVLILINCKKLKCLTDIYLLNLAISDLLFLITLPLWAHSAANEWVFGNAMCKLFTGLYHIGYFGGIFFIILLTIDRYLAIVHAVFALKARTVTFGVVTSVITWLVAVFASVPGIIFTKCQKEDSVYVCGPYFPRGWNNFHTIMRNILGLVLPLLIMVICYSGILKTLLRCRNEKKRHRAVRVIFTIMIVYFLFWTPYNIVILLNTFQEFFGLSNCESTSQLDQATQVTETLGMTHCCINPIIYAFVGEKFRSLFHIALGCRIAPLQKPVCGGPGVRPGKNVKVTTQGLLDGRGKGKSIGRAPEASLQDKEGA
Sequence of Beta-3 adrenergic receptor (P13945 whole entry): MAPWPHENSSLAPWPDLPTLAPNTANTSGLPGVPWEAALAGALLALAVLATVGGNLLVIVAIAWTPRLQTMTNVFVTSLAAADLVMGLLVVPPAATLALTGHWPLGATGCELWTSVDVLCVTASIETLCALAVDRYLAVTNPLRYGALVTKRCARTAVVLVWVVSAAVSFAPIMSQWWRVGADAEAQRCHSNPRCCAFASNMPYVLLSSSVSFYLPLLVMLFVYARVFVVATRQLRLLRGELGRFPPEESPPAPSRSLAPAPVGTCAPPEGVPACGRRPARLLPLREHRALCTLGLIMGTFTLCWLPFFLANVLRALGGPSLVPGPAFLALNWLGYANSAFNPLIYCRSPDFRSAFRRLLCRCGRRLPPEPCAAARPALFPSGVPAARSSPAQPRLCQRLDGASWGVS
Sequence of Melanocortin receptor 3 (P41968 whole entry): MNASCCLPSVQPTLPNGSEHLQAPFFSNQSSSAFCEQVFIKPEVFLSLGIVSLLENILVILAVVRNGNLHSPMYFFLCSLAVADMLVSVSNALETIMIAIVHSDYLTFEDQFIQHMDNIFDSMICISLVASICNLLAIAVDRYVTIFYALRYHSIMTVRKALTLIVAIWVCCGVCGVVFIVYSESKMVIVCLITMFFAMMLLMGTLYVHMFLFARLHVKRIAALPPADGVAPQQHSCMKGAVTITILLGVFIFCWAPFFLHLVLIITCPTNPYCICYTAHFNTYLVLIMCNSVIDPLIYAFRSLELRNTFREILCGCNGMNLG

C[C@H]1c2cccc(O)c2C(=O)C2=C(O)[C@]3(O)C(=O)C(C(N)=O)=C(O)[C@@H](N(C)C)[C@@H]3[C@@H](O)[C@@H]21.O [DOXYCYCLINE]
Not Active: IC50 [1] | IC50 [2] | IC50 [3] | IC50 [4] | Ki [4] | IC50 [5] | Ki [5] | IC50 (Melanocortin receptor 3) | IC50 [6] | Ki [6] | IC50 (Cathepsin G)

COc1ccc(C[C@H]2NC[C@H](O)[C@H]2OC(C)=O)cc1 [ANISOMYCIN]
Not Active: IC50 [1] | Ki [1] | IC50 [2] | Ki [2] | IC50 [3] | Ki [3] | IC50 [4] | Ki [4] | IC50 [5] | Ki [5] | IC50 (Melanocortin receptor 3) | Ki (Melanocortin receptor 3) | IC50 [6] | Ki [6] | IC50 (Cathepsin G) | Ki (Cathepsin G)
